Patent EP0375183A1, “Antiviral dimers and trimers” (SCHERING CORPORATION, priority 1988, dated 1990)

Test system: strain HIV-III of the Human Immunodeficiency virus (HIV)
Test: Protection of HIV-infected human lymphocyte cell lines from virus destruction (syncytia formation, cell rounding/cytopathology), microtiter test
Type: cell-based
Conditions: Human immunodeficiency virus 1, Lymphocyte, continuous cell lines derived from human lymphocytes infected with HIV, incubated 7 to 14 days, microscopic inspection, tests (a) and (b), read-out: Protection of Cells
Procedure: Continuous cell lines derived from human lymphocytes are grown in a microtiter test system. The cells are infected with strain […] of the Human Immunodeficiency virus (HIV), a standard strain isolated from a patient with Acquired Immune Deficiency Syndrome (AIDS). The treated cells are incubated for 7 to 14 days, and the treated cells are inspected by microscope to determine (a) prevention of synctia (cell to cell fusion) formation induced by HIV, or (b) prevention of cell rounding and prevention of HIV caused cytopathology. Such inspections indicate the ability of the compound to prevent cell killing by the virus. Additionally, biochemical determination of the cell media is made to ascertain the ability of the compound to prevent formation of viral products (reverse transcriptase, p24 antigen, or other products), and prevention of formation of more HIV itself.
The control refers to the treatment without a compound of the present invention.

Compound `Cc1cn([C@H]2C[C@H](N=[N+]=[N-])[C@@H](COP(=O)(O)OCC3CCC(n4cnc5c(N)ncnc54)C3)O2)c(=O)[nH]c1=O` (some centres unmarked) [Compound of Example 1, 5′-O-[[[3-(6-Amino-9H-purin-9-yl)cyclopentyl]methoxy]hydroxyphosphinyl]-3′-azido-3′-deoxy-thymidine] has an inhibition at 32 µg/mL (Concentration 32 µg/ml) of 100% and an inhibition at 100 µg/mL (Concentration 100 µg/ml) of 100%.
